Assays:
Assay type in all cases: in vivo, human
[1] = Adverse side effects and allergies reported by the volunteers; settings: 10 days topical use of 5% NMN emulsion, 12 volunteers
Method: A satisfaction study was carried out on a group of 12 volunteers, aged 42±8 years, consisting of seven female and five male subjects. The main objective of this study was to evaluate the level of satisfaction of subjects with regard to the evolution of their lumbalgia (low back pain) during the morning and/or evening application of a composition according to the invention containing 5% by weight of NMN.
A composition in the form of an oil-in-water emulsion comprising 5% NMN was formulated as follows, the ingredients being designated by their INCI (International Nomenclature of Cosmetic Ingredients) name: Aqua, Paraffinum liquidum, Cetyl alcohol, Glyceryl stearate, Benzyl PCA, Ceteareth-20, Ceteareth-12, Cetyl Palmitate, Cocoglycerides, Cetearyl alcohol, Sodium Hydroxide, NMN. The composition was prepared according to any method well known to the person skilled in the art.
Over the subsequent 9 day period, each evening the subjects fill in the Visual Analogue Scale of pain, ensuring any discomfort or problems arising or the taking of analgesics are reported therein.

chronic lumbalgia [2] = experiment: WOMAC questionnaire, 10-day satisfaction study in 12 volunteers
Method: More precisely, the WOMAC score is calculated on the basis of the responses to the questions below: The total score corresponds to the average of the 24 items. The same is true for the score for each area of assessment. A satisfaction study was carried out on a group of 12 volunteers, aged 42±8 years, consisting of seven female and five male subjects. The main objective of this study was to evaluate the level of satisfaction of subjects with regard to the evolution of their lumbalgia (low back pain) during the morning and/or evening application of a composition according to the invention containing 5% by weight of NMN. A composition in the form of an oil-in-water emulsion comprising 5% NMN was formulated as follows, the ingredients being designated by their INCI (International Nomenclature of Cosmetic Ingredients) name: Aqua, Paraffinum liquidum, Cetyl alcohol, Glyceryl stearate, Benzyl PCA, Ceteareth-20, Ceteareth-12, Cetyl Palmitate, Cocoglycerides, Cetearyl alcohol, Sodium Hydroxide, NMN. The composition was prepared according to any method well known to the person skilled in the art. The study took place over 10 days. At baseline, ie upon inclusion (DO), the selected subjects provide their demographic characteristics (age, weight, height), indicate the period of persistence and intensity of the pain on a Visual Analogue Scale, and complete the WOMAC and Lequesne questionnaires. These different scales were used in order to assess by different means the effect of NMN on lumbalgia. On day 10, the volunteers complete the WOMAC questionnaire, the Lequesne questionnaire, the Visual Analogue Scale (VAS) of pain, indicating the perceived improvement in lumbalgia pain relief as measured by the PGI-I index (abbreviation for “Patient Global Improvement Impression”), satisfaction with regard to evolution of the lumbalgia on a Likert scale as well as the ease of application and penetration of the composition, assessment of the texture and odour of the composition, likelihood of re-use thereof in the event of recurrence of a similar pain, and recommendation of use to third parties presenting with pain of similar nature. The PGI-I index is an index that serves as means for evaluating the response to a treatment. The Likert scale is a psychometric tool used for measuring an attitude in individuals, which consists of one or more statements for which the individual responding expresses their degree of agreement or disagreement.

chronic lumbalgia [3] = experiment: Lequesne algo-functional index, 10-day satisfaction study in 12 volunteers
Method: As for the Lequesne score, it varies from 0 to 22: the higher the score, the more extreme or even intolerable the impairment. From 8 to 10, the impairment is qualified as significant and for an index score greater than or equal to 10, the impairment is qualified as very significant. A satisfaction study was carried out on a group of 12 volunteers, aged 42±8 years, consisting of seven female and five male subjects. The main objective of this study was to evaluate the level of satisfaction of subjects with regard to the evolution of their lumbalgia (low back pain) during the morning and/or evening application of a composition according to the invention containing 5% by weight of NMN. A composition in the form of an oil-in-water emulsion comprising 5% NMN was formulated as follows, the ingredients being designated by their INCI (International Nomenclature of Cosmetic Ingredients) name: Aqua, Paraffinum liquidum, Cetyl alcohol, Glyceryl stearate, Benzyl PCA, Ceteareth-20, Ceteareth-12, Cetyl Palmitate, Cocoglycerides, Cetearyl alcohol, Sodium Hydroxide, NMN. The composition was prepared according to any method well known to the person skilled in the art. The study took place over 10 days. At baseline, ie upon inclusion (DO), the selected subjects provide their demographic characteristics (age, weight, height), indicate the period of persistence and intensity of the pain on a Visual Analogue Scale, and complete the WOMAC and Lequesne questionnaires. […] On day 10, the volunteers complete the WOMAC questionnaire, the Lequesne questionnaire, the Visual Analogue Scale (VAS) of pain, indicating the perceived improvement in lumbalgia pain relief as measured by the PGI-I index (abbreviation for “Patient Global Improvement Impression”), satisfaction with regard to evolution of the lumbalgia on a Likert scale as well as the ease of application and penetration of the composition, assessment of the texture and odour of the composition, likelihood of re-use thereof in the event of recurrence of a similar pain, and recommendation of use to third parties presenting with pain of similar nature. […]

[4] = after 10 days vs baseline, p<0.001

NC(=O)c1ccc[n+]([C@@H]2O[C@H](COP(=O)([O-])O)[C@@H](O)[C@H]2O)c1 (stereo in doubt) [NMN, nicotinamide mononucleotide]
adverse side effects [1]: neither any adverse side effects
allergies [1]: nor developed any allergies
WOMAC "function" criterion (chronic lumbalgia [2]; after 10 days of application, baseline 57.1±15.5, 5% NMN emulsion topical): 30.8±21.8
total WOMAC score (chronic lumbalgia [2]; after 10 days of application, baseline 58.3±14.8, 5% NMN emulsion topical): 30.9±21.7
WOMAC "pain" criterion (chronic lumbalgia [2]; after 10 days of application, baseline 59.9±13.1, 5% NMN emulsion topical): 31.0±21.2
WOMAC "stiffness" criterion (chronic lumbalgia [2]; after 10 days of application, baseline 64.2±21.0, 5% NMN emulsion topical): 31.6±25.0
decrease of total WOMAC score (chronic lumbalgia [2]; [4]): 48.6±33.7%
reduction of WOMAC "pain" criterion (chronic lumbalgia [2]; [4]): 50.1±31.3%
reduction of WOMAC "stiffness" criterion (chronic lumbalgia [2]; [4]): 52.5±32.9%
reduction of WOMAC "function" criterion (chronic lumbalgia [2]; after 10 days vs baseline, p<0.01): 47.5±35.6%
reduction in the Lequesne score (chronic lumbalgia [3]; baseline to study endpoint): 38.8%
subjects with no impairment or only a modest or slight impairment (Lequesne) (chronic lumbalgia [3]; end of the study): 83.4%
Lequesne algo-functional score (chronic lumbalgia [3]; study endpoint (day 10), baseline 8.3±2.5, p<0.001, 5% NMN emulsion topical): 5.3±3.8

— patent US20230172959A1, “USE OF NMN FOR THE PREVENTION AND/OR TREATMENT OF A BACK PAIN AND CORRESPONDING COMPOSITIONS” (NUVAMID SA, priority 2020, published 2023)
